Assay results from patent US20240197760A1, “ACTIVATORS OF INTEGRATED STRESS RESPONSE PATHWAY FOR PROTECTION AGAINST FERROPTOSIS” (Burke Neurological Institute, priority 2021, published 2024).

Key:
Creb1, Bdnf, Rbbp4 = experiment: Plasticity gene expression by quantitative real time PCR in mouse primary neurons; assay type: cell-based
Experimental: Primary immature neuronal cultures were prepared from cerebral cortex of E14 embryos (day 14 of gestation) of CD1 mice under sterile conditions. Dissected cortices were incubated at 37° C. for 20 min in EBSS solution containing papain, L-cystine and EDTA, which was activated at 37 °C for 30 min and then was filtered through […] (Millipore, catalog number—SCGP00525). Cortices were then mechanically dissociated by trituration with glass pipettes. The rDNase was added in dissociated cells followed by incubation of these dissociated cells at 37 °C for 3 min. Thereafter, these cells were centrifuged at 2800 rpm for 5 min. Then supernatant was discarded, and cell were resuspended gently in a 5 ml mixture of EBSS and 10/10 solution (4:1 ratio). Then 5 ml of 10/10 solution was added gently on top and these resuspended cells were centrifuged at 2800 rpm for 10 min. Supernatant was again discarded and cells were resuspended in 10 ml MEM, Glutamax supplement (Thermo Fisher Scientific, Catalog number—41090036) containing 10% heat inactivated fetal bovine serum (Thermo Fisher Scientific, Catalog number—16140071), 5% heat inactivated horse serum (Thermo Fisher Scientific, Catalog number—26050088), and 1% penicillin/streptomycin (Thermo Fisher Scientific, Catalog number—15140122). Thereafter, resuspended cells were filtered through 70-micron cell strainer (Thomas Scientific, catalog number—4620F02) followed by their counting through Hemocytometer. Cells were, finally, plated at the density of 1 million cells/ml onto poly-D-Lysine (PDL; Sigma Aldrich, catalog number—P6407-10X5MG) coated pates and placed in CO2-buffered incubators at 37° C.
Total RNA was extracted from primary cortical neurons using NucleoSpin RNA II Kit (Clontech, Catalog number—740955-250). Thereafter, using the Taqman RNA-to-Ct, one step kit (Thermo Fisher Scientific, catalog number—4392938) and following the manufacturer's instructions, […] from each sample was mixed with the Taqman® Gene Expression Master Mix and Taqman® Gene Expression Assays for Creb1 (Catalog number—Mm00501607_m1), Bdnf (Catalog number—Mm04230607_s1), Rbbp4 (Catalog number—Mm00771401_g1), Bip (Catalog number—Mm00517691_m1), Trib3 (Catalog number—Mm00454879_m1), and Chac1 (Catalog number—Mm00509926_m1) with FAM labelled probe and Actin with VIC labelled probe all from Thermo Fisher Scientific on an Applied Biosystems 7500 Fast Real Time PCR System. For assessing gene expression of various specific Bdnf exons in mouse primary neurons, two step qPCR was used. Total RNA from primary cortical neurons was extracted using NucleoSpin RNA II Kit (Clontech, Catalog number—740955-250) and a total of 1.5 μg RNA was used to synthesize cDNA with the SuperScript® III First-Strand Synthesis System (Thermo Fisher Scientific, Catalog number—18080051). Quantitative RT-PCR was then performed using SYBR green (Thermo Fisher Scientific, Catalog number—4309155) on an Applied Biosystems 7500 Fast Real Time PCR System. Quantitative levels for all genes were normalized to the housekeeping gene GAPDH and expressed relative to the relevant control samples as fold change. The sequences of primers used in this part of the study were as follows: Bdnf I forward: […] (SEQ ID NO:9) and Bdnf I reverse: […] (SEQ ID NO:10); Bdnf II forward: […] (SEQ ID NO:11) and Bdnf II reverse: […] (SEQ ID NO:12); Bdnf IV forward #2: […] (SEQ ID NO:13) and Bdnf IV reverse #2: […] (SEQ ID NO:14); Bdnf VI forward: […] (SEQ ID NO:15) and Bdnf VI reverse: […] (SEQ ID NO:16); Bdnf VII forward: […] (SEQ ID NO:17) and Bdnf VII reverse: […] (SEQ ID NO:18) Bdnf IX forward: […] (SEQ ID NO:19) and Bdnf IX reverse: […] (SEQ ID NO:20); Gapdh forward #2: […] (SEQ ID NO:21) and Gapdh reverse #2: […] (SEQ ID NO: 22).

primary neurons = experiment: High throughput RNA sequencing of primary neurons; assay type: cell-based, mouse
Experimental: Primary cortical neurons were treated with 2-DG (1 mM and 10 mM) for 6 h from three independent cultures and RNA was isolated from each sample using a NucleoSpin RNA II Kit (Clontech, Catalog number-740955-250). For each RNA sample, RNA quality was initially quantified using the RNA Integrity Number (RIN) on an Agilent Bioanalyzer (Agilent Genomics). RNA-sequencing was carried out for the RNAs with by the UCLA Neuroscience Genomics Core. In brief, cDNA was generated using Ovation® RNA-Seq System V2 (NuGEN) followed by the library preparation using Illumina's TruSeq Stranded RNA (100 ng)+RiboZero Gold. The libraries were pooled and sequenced to generate 75 bp paired end reads on HiSeqTM4000 system (Illumina). Minimum of […] reads were obtained. Reads were aligned to the mouse mm10 reference genome using the STAR (ver 2.4.0) spliced read aligner (Dobin et al., 2013). Uniquely aligned read percentage was […](SD). Various quality matrix was generated to use high quality data for the analysis. Read counts for mouse […] genes were generated by HT-seq 0.6.1 (Anders et al., 2015). Genes with at least 5 read events at least half of samples were permitted into the dataset, for a total of 15,787 genes. Raw counts were normalized by trimmed mean of M values (TMM). Differentially expressed genes (DEG) were analyzed using an EdgeR bioconductor R (Robinson et al., 2010). False discovery rate less than 0.1 is used to define differentially expressed genes. Gene Set Enrichment Analysis (GSEA) was performed with gene lists sorted by directional p-Values from differential expression analysis. Raw and processed RNAseq data are deposited to Gene Expression Omnibus (GEO #).

OC[C@H]1OC(O)C[C@@H](O)[C@@H]1O (stereo partly drawn) [2-DG, (4R,5S,6R)-6-(hydroxymethyl)oxane-2,4,5-triol]
endogenous mRNA levels of six Bdnf transcript variants (Creb1, Bdnf, Rbbp4; 10 mM, 6 h, mouse primary neurons): all transcript variants were upregulated
Creb1 and Bdnf gene expression with AMPK phosphorylation knocked down (Creb1, Bdnf, Rbbp4; adenoviral dominant negative AMPK, increasing concentrations of 2-DG): did not block 2-DG led increase in Creb1 and Bdnf gene expression
Bdnf gene expression with dominant negative ATF4 (Creb1, Bdnf, Rbbp4; adenoviral dominant negative ATF4, 2-DG 6 h treatment): ATF4 knockdown blocked 2-DG led increase in Bdnf gene expression
plasticity gene program in depolarized primary neurons (Creb1, Bdnf, Rbbp4; increasing concentration, co-treated with 25 mM KCl, 6 h): dose dependent increase in plasticity gene program
changes in Bdnf gene expression (Creb1, Bdnf, Rbbp4; increasing concentrations 1-15 mM, primary cortical neurons): does dependent
expression of plasticity genes Creb1, Bdnf and Rbbp4 (mRNA) (Creb1, Bdnf, Rbbp4; increasing concentrations, 6 h, mouse primary neurons): dose-dependent increase
genes related to the unfolded protein response (primary neurons; 1 mM and 10 mM, 6 h): dose dependent increase
cellular component enrichment analysis (primary neurons; 1 mM or 10 mM, 6 h): significant enrichment of genes related to endoplasmic reticulum
gene set enrichment analysis: gene signature related to unfolded protein response (UPR) (primary neurons; 1 mM or 10 mM, 6 h): maximal upregulation
plasticity gene program in RNA sequencing (primary neurons; 1 mM or 10 mM, 6 h): upregulation of a broad plasticity gene program
mitochondrial gene signature in RNA sequencing (primary neurons; 2-DG treatment, primary neurons): didn't show any significant change
